From patent publication US10730858B2, “Lactam, cyclic urea and carbamate, and triazolone derivatives as potent and selective rock inhibitors” (BRISTOL-MYERS SQUIBB COMPANY, priority 2016, dated 2020)

Molecular target: ROCK2 (Homo sapiens, UniProt O75116)
Assay: ROCK2 assay (Caliper LABCHIP peptide phosphorylation, kinase inhibition)
Assay type: biochemical
Settings: 5 μM ATP, 1.5 μM peptide substrate
Procedure: The effectiveness of compounds of the present invention as ROCK inhibitors can be determined in a 30 μL assay containing 20 mM HEPES, pH 7.5, 20 mM MgCl2, 0.015% Brij-35, 4 mM DTT, 5 μM ATP and 1.5 μM peptide substrate (FITC-AHA-AKRRRLSSLRA-OH) (SEQ ID NO. 1). Compounds were dissolved in DMSO so that the final concentration of DMSO was <2%, and the reaction was initiated with Rho kinase variants. After incubation, the reaction was terminated by the addition of EDTA and the phosphorylated and non-phosphorylated peptides separated using a LABCHIP® 3000 Reader (Caliper Life Sciences). […] Compounds were tested in dose-response format, and the inhibition of kinase activity was calculated at each concentration of compound. The inhibition data were fit using a curve-fitting program to determine the IC50; i.e., the concentration of compound required to inhibit 50% of kinase activity.
Representative Examples were tested in the ROCK2 assay described above and found having ROCK2 inhibitory activity. The ranges of the ROCK2 IC50 values are as follows: ROCK2 IC50: ++++ (<10 nM) +++ (10-100 nM) ++ (100-500 nM) + (500-2000 nM)

Sequence of ROCK2 (O75116 whole entry, species assumed): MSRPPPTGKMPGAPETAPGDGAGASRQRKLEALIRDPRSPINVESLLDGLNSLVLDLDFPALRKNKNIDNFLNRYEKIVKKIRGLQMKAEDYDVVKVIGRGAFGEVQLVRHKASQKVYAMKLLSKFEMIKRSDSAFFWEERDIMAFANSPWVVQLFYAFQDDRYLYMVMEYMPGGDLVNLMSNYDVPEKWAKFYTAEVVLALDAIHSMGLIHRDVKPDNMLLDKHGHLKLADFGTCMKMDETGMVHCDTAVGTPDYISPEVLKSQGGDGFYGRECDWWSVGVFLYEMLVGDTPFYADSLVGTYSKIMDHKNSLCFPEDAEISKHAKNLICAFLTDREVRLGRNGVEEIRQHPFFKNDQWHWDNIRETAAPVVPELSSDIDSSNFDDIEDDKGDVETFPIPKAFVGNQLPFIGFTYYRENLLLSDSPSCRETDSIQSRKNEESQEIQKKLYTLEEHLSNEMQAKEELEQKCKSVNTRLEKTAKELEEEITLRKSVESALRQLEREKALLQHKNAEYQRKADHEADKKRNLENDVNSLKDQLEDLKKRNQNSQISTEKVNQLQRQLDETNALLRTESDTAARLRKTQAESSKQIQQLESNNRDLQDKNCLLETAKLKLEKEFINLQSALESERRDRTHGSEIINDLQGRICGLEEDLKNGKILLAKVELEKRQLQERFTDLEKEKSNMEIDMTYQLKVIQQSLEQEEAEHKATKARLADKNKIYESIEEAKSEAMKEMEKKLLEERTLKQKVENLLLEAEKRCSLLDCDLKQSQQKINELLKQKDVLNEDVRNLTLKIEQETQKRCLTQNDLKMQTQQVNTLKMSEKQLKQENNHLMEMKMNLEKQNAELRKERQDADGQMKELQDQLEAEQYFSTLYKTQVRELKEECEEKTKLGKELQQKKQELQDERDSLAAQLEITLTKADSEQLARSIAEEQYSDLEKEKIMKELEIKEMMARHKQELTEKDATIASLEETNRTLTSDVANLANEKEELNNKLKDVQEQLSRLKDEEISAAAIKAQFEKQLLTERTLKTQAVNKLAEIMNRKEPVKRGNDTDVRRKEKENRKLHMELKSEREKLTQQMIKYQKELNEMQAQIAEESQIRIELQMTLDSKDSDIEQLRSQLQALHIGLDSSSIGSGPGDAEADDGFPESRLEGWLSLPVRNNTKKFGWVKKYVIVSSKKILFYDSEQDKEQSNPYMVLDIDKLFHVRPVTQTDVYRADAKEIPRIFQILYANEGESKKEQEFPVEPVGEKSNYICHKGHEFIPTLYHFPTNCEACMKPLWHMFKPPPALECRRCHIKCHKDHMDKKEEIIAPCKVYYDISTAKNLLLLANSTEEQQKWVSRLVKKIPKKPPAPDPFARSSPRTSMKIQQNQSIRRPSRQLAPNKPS

| IC50 [µM] | Compound |
| --- | --- |
| < 0.01 | O=C1C(Nc2cccc(OC(F)F)c2)CCN1c1ccc(-c2c[nH]c(=O)c3ccccc23)cc1 (racemic) [Example 58, 4-[4-(3-{[3-(difluoromethoxy)phenyl]amino}-2-oxopyrrolidin-1-yl)phenyl]-1,2-dihydroisoquinolin-1-one] |
| 0.01 to 0.1 | O=C1C(Nc2ccc3c(c2)OCCCO3)CCN1c1ccc(-c2n[nH]c(=O)c3ccccc23)cc1 (single isomer, unassigned) [Example 76, 4-(4-{3-[(3,4-dihydro-2H-1,5-benzodioxepin-7-yl)amino]-2-oxopyrrolidin-1-yl}phenyl)-1,2-dihydrophthalazin-1-one] |
| 0.01 to 0.1 | O=C1C(Nc2ccc3c(c2)OCCCO3)CCN1c1ccc(-c2n[nH]c(=O)c3ccccc23)cc1 (single isomer, unassigned) [Example 77, 4-(4-{3-[(3,4-dihydro-2H-1,5-benzodioxepin-7-yl)amino]-2-oxopyrrolidin-1-yl}phenyl)-1,2-dihydrophthalazin-1-one] |
| < 0.01 | O=C1COc2cc(NC3CCN(c4ccc(-c5n[nH]c(=O)c6ccccc56)cc4)C3=O)ccc2N1 (single isomer, unassigned) [Example 82, 7-({2-oxo-1-[4-(4-oxo-3,4-dihydrophthalazin-1-yl)phenyl]pyrrolidin-3-yl}amino)-3,4-dihydro-2H-1,4-benzoxazin-3-one] |
| 0.1 to 0.5 | O=C1C(c2ccccc2)CCN1c1ccc(-c2n[nH]c(=O)c3ccccc23)cc1 (centres unmarked) [Example 1, 4-[4-(2-oxo-3-phenylpyrrolidin-1-yl)phenyl]-1,2-dihydrophthalazin-1-one] |
| 0.5 to 2 | O=C1C(C(=O)N2CCc3ccccc32)CCN1c1ccc(-c2n[nH]c(=O)c3ccccc23)cc1 (centres unmarked) [Example 3, 4-{4-[3-(2,3-dihydro-1H-indole-1-carbonyl)-2-oxopyrrolidin-1-yl]phenyl}-1,2-dihydrophthalazin-1-one] |
| 0.1 to 0.5 | O=C(NCc1ccccc1)C1CCN(c2ccc(-c3n[nH]c(=O)c4ccccc34)cc2)C1=O (centres unmarked) [Example 7, N-benzyl-2-oxo-1-[4-(4-oxo-3,4-dihydrophthalazin-1-yl)phenyl]pyrrolidine-3-carboxamide] |
| 0.1 to 0.5 | O=C1C(c2ccc(-c3n[nH]c(=O)c4ccccc34)cc2)CCN1c1ccccc1 (centres unmarked) [Example 9, 4-[4-(2-oxo-1-phenylpyrrolidin-3-yl)phenyl]-1,2-dihydrophthalazin-1-one] |
| 0.01 to 0.1 | O=C1N(c2ccc(-c3n[nH]c(=O)c4ccccc34)cc2)CCN1c1ccccn1 [Example 12, 4-{4-[2-oxo-3-(pyridin-2-yl)imidazolidin-1-yl]phenyl}-1,2-dihydrophthalazin-1-one] |
| 0.01 to 0.1 | O=C1OC(Cc2ccccc2)CN1c1ccc(-c2n[nH]c(=O)c3ccccc23)cc1 (centres unmarked) [Example 13, 4-[4-(5-benzyl-2-oxo-1,3-oxazolidin-3-yl)phenyl]-1,2-dihydrophthalazin-1-one] |
| 0.1 to 0.5 | O=C1OCC(c2ccccc2)N1c1ccc(-c2n[nH]c(=O)c3ccccc23)cc1 (centres unmarked) [Example 14, 4-[4-(2-oxo-4-phenyl-1,3-oxazolidin-3-yl)phenyl]-1,2-dihydrophthalazin-1-one] |

The remaining lines, values behind:

| Compound | IC50 [µM] |
| --- | --- |
| O=C1C(Nc2cccc(OC(F)F)c2)CCN1c1ccc(-c2n[nH]c(=O)c3ccccc23)cc1 (racemic) [Example 30, 4-[4-(3-{[3-(difluoromethoxy)phenyl]amino}-2-oxopyrrolidin-1-yl)phenyl]-1,2-dihydrophthalazin-1-one] | < 0.01 |
| O=C1COc2cc(NC3CCN(c4ccc(-c5n[nH]c(=O)c6ccccc56)cc4)C3=O)ccc2N1 (racemic) [Example 62, 7-({2-oxo-1-[4-(4-oxo-3,4-dihydrophthalazin-1-yl)phenyl]pyrrolidin-3-yl}amino)-3,4-dihydro-2H-1,4-benzoxazin-3-one] | < 0.01 |
| Cc1nc2ccc(NC3CCN(c4ccc(-c5n[nH]c(=O)c6ccccc56)cc4)C3=O)cc2s1 (racemic) [Example 66, 4-(4-{3-[(2-methyl-1,3-benzothiazol-6-yl)amino]-2-oxopyrrolidin-1-yl}phenyl)-1,2-dihydrophthalazin-1-one] | < 0.01 |
| O=C1C(Oc2cccc(OC(F)(F)F)c2)CCN1c1ccc(-c2n[nH]c(=O)c3ccccc23)cc1 (racemic) [Example 73, 4-(4-{2-oxo-3-[3-(trifluoromethoxy)phenoxy]pyrrolidin-1-yl}phenyl)-1,2-dihydrophthalazin-1-one] | < 0.01 |
| O=C1C(Nc2cccc(OC(F)F)c2)CCN1c1ccc(-c2n[nH]c(=O)c3ccccc23)cc1 (single isomer, unassigned) [Example 55, 4-[4-(3-{[3-(difluoromethoxy)phenyl]amino}-2-oxopyrrolidin-1-yl)phenyl]-1,2-dihydrophthalazin-1-one] | 0.01 to 0.1 |
| O=C1C(Nc2cccc(OC(F)F)c2)CCN1c1ccc(-c2n[nH]c(=O)c3ccccc23)cc1 (single isomer, unassigned) [Example 56, 4-[4-(3-{[3-(difluoromethoxy)phenyl]amino}-2-oxopyrrolidin-1-yl)phenyl]-1,2-dihydrophthalazin-1-one] | < 0.01 |
| O=C1C(Nc2cccc(OC(F)F)c2)CCN1c1ccc(-c2c[nH]c(=O)c3ccccc23)cc1 (single isomer, unassigned) [Example 78, 4-[4-(3-{[3-(difluoromethoxy)phenyl]amino}-2-oxopyrrolidin-1-yl)phenyl]-1,2-dihydroisoquinolin-1-one] | 0.01 to 0.1 |
| O=C1C(Nc2cccc(OC(F)F)c2)CCN1c1ccc(-c2c[nH]c(=O)c3ccccc23)cc1 (single isomer, unassigned) [Example 79, 4-[4-(3-{[3-(difluoromethoxy)phenyl]amino}-2-oxopyrrolidin-1-yl)phenyl]-1,2-dihydroisoquinolin-1-one] | < 0.01 |
| Cc1nc2ccc(NC3CCN(c4ccc(-c5n[nH]c(=O)c6ccccc56)cc4)C3=O)cc2s1 (single isomer, unassigned) [Example 80, 4-(4-{3-[(2-methyl-1,3-benzothiazol-6-yl)amino]-2-oxopyrrolidin-1-yl}phenyl)-1,2-dihydrophthalazin-1-one] | < 0.01 |
| Cc1nc2ccc(NC3CCN(c4ccc(-c5n[nH]c(=O)c6ccccc56)cc4)C3=O)cc2s1 (single isomer, unassigned) [Example 81, 4-(4-{3-[(2-methyl-1,3-benzothiazol-6-yl)amino]-2-oxopyrrolidin-1-yl}phenyl)-1,2-dihydrophthalazin-1-one] | 0.01 to 0.1 |
| O=C1COc2cc(NC3CCN(c4ccc(-c5n[nH]c(=O)c6ccccc56)cc4)C3=O)ccc2N1 (single isomer, unassigned) [Example 83, 7-({2-oxo-1-[4-(4-oxo-3,4-dihydrophthalazin-1-yl)phenyl]pyrrolidin-3-yl}amino)-3,4-dihydro-2H-1,4-benzoxazin-3-one] | 0.01 to 0.1 |
| O=C1C(Oc2cccc(OC(F)(F)F)c2)CCN1c1ccc(-c2n[nH]c(=O)c3ccccc23)cc1 (single isomer, unassigned) [Example 84, 4-(4-{2-oxo-3-[3-(trifluoromethoxy)phenoxy]pyrrolidin-1-yl}phenyl)-1,2-dihydrophthalazin-1-one] | < 0.01 |
| O=C1C(Oc2cccc(OC(F)(F)F)c2)CCN1c1ccc(-c2n[nH]c(=O)c3ccccc23)cc1 (single isomer, unassigned) [Example 85, 4-(4-{2-oxo-3-[3-(trifluoromethoxy)phenoxy]pyrrolidin-1-yl}phenyl)-1,2-dihydrophthalazin-1-one] | < 0.01 |
| O=C1N(c2ccccc2)CCN1c1ccc(-c2n[nH]c(=O)c3ccccc23)cc1 [Example 2, 4-[4-(2-oxo-3-phenylimidazolidin-1-yl)phenyl]-1,2-dihydrophthalazin-1-one] | < 0.01 |
| O=C1CC(c2ccccc2)CN1c1ccc(-c2n[nH]c(=O)c3ccccc23)cc1 (centres unmarked) [Example 4, 4-[4-(2-oxo-4-phenylpyrrolidin-1-yl)phenyl]-1,2-dihydrophthalazin-1-one] | 0.1 to 0.5 |
| O=C(C1CCN(c2ccc(-c3n[nH]c(=O)c4ccccc34)cc2)C1=O)N1Cc2ccccc2C1 (centres unmarked) [Example 5, 4{-4-[3-(2,3-dihydro-1H-isoindole-2-carbonyl)-2-oxopyrrolidin-1-yl]phenyl}-1,2-dihydrophthalazin-1-one] | 0.5 to 2 |
| O=C(Nc1ccccc1)C1CCN(c2ccc(-c3n[nH]c(=O)c4ccccc34)cc2)C1=O (centres unmarked) [Example 6, 2-oxo-1-[4-(4-oxo-3,4-dihydrophthalazin-1-yl)phenyl]-N-phenylpyrrolidine-3-carboxamide] | 0.1 to 0.5 |
| O=C1C(c2ccc(-c3n[nH]c(=O)c4ccccc34)cc2)CCN1Cc1ccccc1 (centres unmarked) [Example 8, 4-[4-(1-benzyl-2-oxopyrrolidin-3-yl)phenyl]-1,2-dihydrophthalazin-1-one] | 0.5 to 2 |
| O=C1N(Cc2ccccc2)CCN1c1ccc(-c2n[nH]c(=O)c3ccccc23)cc1 [Example 10, 4-[4-(3-benzyl-2-oxoimidazolidin-1-yl)phenyl]-1,2-dihydrophthalazin-1-one] | 0.01 to 0.1 |
| O=C1N(c2ccc(-c3n[nH]c(=O)c4ccccc34)cc2)CCN1c1cccnc1 [Example 11, 4-{4-[2-oxo-3-(pyridin-3-yl)imidazolidin-1-yl]phenyl}-1,2-dihydrophthalazin-1-one] | 0.01 to 0.1 |
| O=C1OC(c2ccccc2)CN1c1ccc(-c2n[nH]c(=O)c3ccccc23)cc1 (centres unmarked) [Example 15, 4-[4-(2-oxo-5-phenyl-1,3-oxazolidin-3-yl)phenyl]-1,2-dihydrophthalazin-1-one] | 0.01 to 0.1 |
